Test results from PMC11558128 (Advanced Science, 2024).
Positions of bridges follow the written chain, without caps; N, C: chain ends. Residues, ends and D or L forms follow the SMILES beside them.

Legend:
rKv4.3 = molecular target: T1, rKv4.3 (Rattus norvegicus, UniProt Q62897); experiment: cell-based; settings: vs HNTX-III
T1 construct: expressed in transfected cells; host or cells: HEK293T
T1 sequence (Q62897 1-655): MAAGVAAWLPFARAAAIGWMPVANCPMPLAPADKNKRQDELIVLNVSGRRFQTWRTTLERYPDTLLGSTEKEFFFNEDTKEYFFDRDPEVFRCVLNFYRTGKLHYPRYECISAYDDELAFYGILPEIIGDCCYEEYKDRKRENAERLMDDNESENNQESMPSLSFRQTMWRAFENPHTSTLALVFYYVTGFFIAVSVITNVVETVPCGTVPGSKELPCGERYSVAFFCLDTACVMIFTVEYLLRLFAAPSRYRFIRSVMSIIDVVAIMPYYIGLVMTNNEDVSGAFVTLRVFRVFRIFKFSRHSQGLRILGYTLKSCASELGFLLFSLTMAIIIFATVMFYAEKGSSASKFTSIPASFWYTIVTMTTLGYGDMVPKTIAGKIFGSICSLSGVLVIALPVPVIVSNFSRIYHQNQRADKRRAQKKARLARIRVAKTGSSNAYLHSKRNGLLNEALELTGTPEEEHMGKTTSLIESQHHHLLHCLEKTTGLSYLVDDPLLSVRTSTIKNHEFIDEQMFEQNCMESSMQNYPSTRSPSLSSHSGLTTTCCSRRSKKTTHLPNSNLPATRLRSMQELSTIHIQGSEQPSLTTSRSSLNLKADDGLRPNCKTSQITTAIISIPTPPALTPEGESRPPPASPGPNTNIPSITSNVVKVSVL

hNav1.7 = molecular target: T2, hNav1.7 (Homo sapiens, UniProt Q15858); parameters: method as in 2 sources, one per row (each row's own in cited_ref): ref 11c (a number printed in a supplementary file, which may have a reference list of its own: not looked up in the article's list) ||| ref 11c = [11]; PMID 27129258; doi:10.1074/jbc.M116.725978; 11 a) G. L. Adams , P. S. Pall , S. M. Grauer , X. Zhou , J. E. Ballard , M. Vavrek , R. L. Kraus , P. Morissette , N. Li , S. Colarusso , E. Bianchi , A. Palani , R. Klein , C. T. John , D. Wang , M.; settings: vs HNTX-III; ref 11c; cited from earlier work
T2 construct: expressed in transfected cells; host or cells: HEK293T
T2 sequence (O60939 30-215): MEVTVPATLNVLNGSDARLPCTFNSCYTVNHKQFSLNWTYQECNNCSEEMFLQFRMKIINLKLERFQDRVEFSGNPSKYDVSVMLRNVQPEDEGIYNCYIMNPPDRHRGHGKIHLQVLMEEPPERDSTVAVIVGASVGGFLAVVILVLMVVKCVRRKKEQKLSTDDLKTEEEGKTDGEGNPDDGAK
T2 sequence (Q15858 other isoform, or with tags, fused parts or gaps): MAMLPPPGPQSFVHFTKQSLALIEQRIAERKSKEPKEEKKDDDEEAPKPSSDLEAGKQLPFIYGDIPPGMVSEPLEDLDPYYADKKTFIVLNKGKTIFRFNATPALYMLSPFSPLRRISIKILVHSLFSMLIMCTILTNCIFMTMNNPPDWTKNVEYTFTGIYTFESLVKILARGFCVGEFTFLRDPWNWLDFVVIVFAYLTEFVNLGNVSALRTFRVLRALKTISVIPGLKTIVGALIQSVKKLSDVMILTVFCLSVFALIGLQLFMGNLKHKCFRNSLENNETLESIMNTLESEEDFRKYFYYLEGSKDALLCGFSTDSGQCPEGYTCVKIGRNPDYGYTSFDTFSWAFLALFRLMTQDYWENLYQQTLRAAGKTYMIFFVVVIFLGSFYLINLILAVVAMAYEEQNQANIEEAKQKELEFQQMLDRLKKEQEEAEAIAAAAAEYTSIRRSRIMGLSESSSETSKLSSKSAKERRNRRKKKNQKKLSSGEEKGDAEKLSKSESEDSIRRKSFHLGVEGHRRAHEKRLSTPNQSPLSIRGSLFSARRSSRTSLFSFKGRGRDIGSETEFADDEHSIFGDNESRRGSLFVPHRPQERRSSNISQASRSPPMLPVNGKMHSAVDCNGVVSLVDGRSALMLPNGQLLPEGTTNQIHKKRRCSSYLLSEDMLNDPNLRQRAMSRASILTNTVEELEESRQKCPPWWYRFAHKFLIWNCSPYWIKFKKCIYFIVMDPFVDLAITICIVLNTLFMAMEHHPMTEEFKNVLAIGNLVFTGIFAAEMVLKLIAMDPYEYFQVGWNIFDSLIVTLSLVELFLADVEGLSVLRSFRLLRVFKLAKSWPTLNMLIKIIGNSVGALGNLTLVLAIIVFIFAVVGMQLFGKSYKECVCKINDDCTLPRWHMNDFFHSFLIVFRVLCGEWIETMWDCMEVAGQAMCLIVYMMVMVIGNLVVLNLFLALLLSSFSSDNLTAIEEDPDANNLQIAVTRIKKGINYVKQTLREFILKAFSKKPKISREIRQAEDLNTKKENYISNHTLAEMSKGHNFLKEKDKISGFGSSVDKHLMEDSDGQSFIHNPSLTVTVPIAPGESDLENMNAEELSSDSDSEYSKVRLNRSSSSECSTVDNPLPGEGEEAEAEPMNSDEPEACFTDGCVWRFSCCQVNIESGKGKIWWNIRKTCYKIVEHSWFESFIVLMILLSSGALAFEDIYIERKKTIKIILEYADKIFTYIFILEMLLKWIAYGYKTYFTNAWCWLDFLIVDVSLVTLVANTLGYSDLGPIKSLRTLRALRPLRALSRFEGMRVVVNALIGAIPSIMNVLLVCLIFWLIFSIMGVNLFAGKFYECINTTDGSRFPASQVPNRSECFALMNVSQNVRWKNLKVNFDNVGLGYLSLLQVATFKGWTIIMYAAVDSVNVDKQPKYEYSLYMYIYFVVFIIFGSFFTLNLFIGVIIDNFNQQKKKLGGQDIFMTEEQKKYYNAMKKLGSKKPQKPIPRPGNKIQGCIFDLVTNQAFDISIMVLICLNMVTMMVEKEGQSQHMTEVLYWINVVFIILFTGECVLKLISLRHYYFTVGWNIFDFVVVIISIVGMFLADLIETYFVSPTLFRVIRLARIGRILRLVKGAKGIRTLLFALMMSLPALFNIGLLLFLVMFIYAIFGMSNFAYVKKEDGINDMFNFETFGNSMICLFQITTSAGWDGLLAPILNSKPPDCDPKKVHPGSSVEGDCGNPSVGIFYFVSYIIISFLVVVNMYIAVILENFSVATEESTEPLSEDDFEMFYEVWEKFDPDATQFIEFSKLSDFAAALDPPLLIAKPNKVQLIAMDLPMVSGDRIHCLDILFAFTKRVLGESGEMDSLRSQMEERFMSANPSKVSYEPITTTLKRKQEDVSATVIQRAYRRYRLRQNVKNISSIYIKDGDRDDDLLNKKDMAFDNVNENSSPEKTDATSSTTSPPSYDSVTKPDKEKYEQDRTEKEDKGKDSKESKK
T2 sequence (Q07699 19-218, further chain): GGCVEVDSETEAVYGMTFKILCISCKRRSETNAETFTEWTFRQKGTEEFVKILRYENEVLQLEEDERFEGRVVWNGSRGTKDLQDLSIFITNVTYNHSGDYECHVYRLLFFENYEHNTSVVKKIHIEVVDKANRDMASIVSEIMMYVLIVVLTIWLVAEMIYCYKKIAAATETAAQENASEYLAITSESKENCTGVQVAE

C57BL/6 mice [1] = experiment: CFA-induced inflammatory pain model (von Frey paw withdrawal threshold); settings: mouse, in vivo
Procedure: In the Complete Freund's adjuvant (CFA)–induced inflammatory pain modelinflammation is induced by injecting 15 µL of CFA into the intraplantar surface of the right hind paw of C57BL/6 mice (weight 18–20 g, 6–8 weeks, both sex).^[ [38] ^] Mechanical paw withdrawal thresholds are then measured using manual von Frey (Stoelting Co) after 2 days of CFA injection.

C57BL/6 mice [2] = experiment: Spared nerve injury (SNI) neuropathic pain model; settings: mouse, in vivo, ip
Procedure: In the spared nerve injury (SNI) neuropathic pain model,^[ [39] ^] C57BL/6 mice (weight 18–20 g, 6–8 weeks, both sex) were anesthetized with 3% halothane. The thigh was incised parallel to the femur, and the muscles were bluntly separated to expose the sciatic nerve. The sciatic nerve is ligated with 6.0 silk sutures. […] The paw withdrawal threshold to mechanical stimuli is measured between 0 and 180 min after drug administration.

## CC(C)C[C@@H]1NC(=O)[C@H](Cc2ccc(O)cc2)NC(=O)[C@H](CC(N)=O)NC(=O)[C@H](CCCCN)NC(=O)[C@@H]2CSSC[C@H](NC(=O)CNC(=O)[C@@H](N)CCCCN)C(=O)N[C@@H](CCCCN)C(=O)NCC(=O)N[C@@H](Cc3ccccc3)C(=O)NCC(=O)N[C@@H](CC(=O)O)C(=O)N[C@@H](CO)C(=O)N[C@H]3CSSC[C@H](NC1=O)C(=O)N[C@@H](CO)C(=O)N[C@@H](CO)C(=O)N[C@@H](CCCCN)C(=O)N[C@@H](Cc1c[nH]cn1)C(=O)N[C@@H](CCCCN)C(=O)N[C@@H](Cc1c[nH]c4ccccc14)C(=O)N[C@H](C(=O)N[C@@H](CCCCN)C(=O)N[C@H](C(=O)N[C@@H](Cc1ccc(O)cc1)C(=O)N[C@@H](CC(C)C)C(=O)N[C@H](C(N)=O)C(C)C)C(C)C)CSSC[C@H](NC(=O)[C@H](CCC(=O)O)NC(=O)[C@H](CC(N)=O)NC(=O)[C@H](CCCCN)NC(=O)CNC(=O)[C@@H]1CCCN1C(=O)[C@H]([C@@H](C)O)NC3=O)C(=O)N2 [HNTX-III-H4] (H-KGCKGFGDSCTPGKNECCKNYLCSSKHKWCKVYLV-NH2; disulfide 3-18, 10-23, 17-30; N-terminus and C-terminus assumed)
rKv4.3
  improved potency for rKv4.3: 45 fold
hNav1.7
  improved potency on hNav1.7 currents: 30 fold

## CN1CC[C@]23c4c5ccc(O)c4O[C@H]2[C@@H](O)C=C[C@H]3[C@H]1C5 [morphine]
C57BL/6 mice [1]
  duration of anti-allodynic effect, CFA model: 2 h
C57BL/6 mice [2]
  mechanical allodynia induced by SNI compared with the saline group: significantly decreased
